Measurements taken from ChEMBL document CHEMBL1126980, “New, potent anthelmintic and acaricidal agents: 4-deoxy-4-thio-substituted avermectin derivatives” (Bioorg Med Chem Lett, 1993).
Values after ≈ are worked out from the molar mass of the structure shown.

What was measured:
Tetranychus urticae = test: Tested for acaricidal efficacy using a Tetranychus urticae (two-spotted spider mite, TSSM) contact assay; assay type: functional; design: concentration or dose not given beside the values
[1] = test system: Trichostrongylus colubriformis; test: Tested in vivo for the biological efficacy using Trichostrongylus colubriformis gerbil assay; assay type: functional
Artemia salina = test: Tested in vitro for the biological efficacy using Artemia salina (brine shrimp) immobilization assay; assay type: functional
Caenorhabditis elegans = test: Tested in vitro for the biological efficacy using Caenorhabditis elegans binding assay; assay type: functional, organism-based
Ovis aries [2] = test: Tested for anthelmintic efficacy against Haemonchus contortus at 0.1 mg/kg; range is 91-100%; assay type: functional
Ovis aries [3] = test: Tested for the anthelmintic efficacy against Oesphagostomum columbianum at 0.1 mg/kg; range is 91-100%; assay type: functional
Ovis aries [4] = test: Tested for the anthelmintic efficacy against Trichostrongylus axei at 0.1 mg/kg; range is 91-100%; assay type: functional
Ovis aries [5] = test: Tested for the anthelmintic efficacy against Cooperia curticei at 0.1 mg/kg; range is 91-100%; assay type: functional
Ovis aries [6] = test: Tested for the anthelmintic efficacy against Ostertagia circumcincta at 0.1 mg/kg; range is 91-100%; assay type: functional
Ovis aries [7] = test: Tested for the anthelmintic efficacy against Trichostrongylus colubriformis at 0.1 mg/kg; range is 91-100%; assay type: functional

| SMILES | Mortality (Tetranychus urticae) [%] | ED85 [1] [mg/kg] | IC100 (Artemia salina) [ng/mL] | IC50 (Caenorhabditis elegans) [ng/mL] | Reduction (Ovis aries [2]) [%] | Reduction (Ovis aries [3]) [%] | Reduction (Ovis aries [4]) [%] | Reduction (Ovis aries [5]) [%] | Reduction (Ovis aries [6]) [%] | Reduction (Ovis aries [7]) [%] |
| --- | --- | --- | --- | --- | --- | --- | --- | --- | --- | --- |
| CCC(C)[C@H]1O[C@]2(CC[C@@H]1C)C[C@@H]1C[C@@H](C/C=C(\C)[C@@H](O[C@H]3C[C@H](OC)[C@@H](O[C@H]4C[C@H](OC)[C@H]([S+]([O-])CCO)[C@H](C)O4)[C@H](C)O3)[C@@H](C)/C=C/C=C3\CO[C@@H]4[C@H](O)C(C)=C[C@@H](C(=O)O1)[C@]34O)O2 (some centres not stated) | 31 | 0.25 | 870 | 0.188 (≈ 0.198 nM) | – | – | – | – | – | – |
| CCC(C)[C@H]1O[C@]2(C=C[C@@H]1C)C[C@@H]1C[C@@H](C/C=C(\C)[C@@H](O[C@H]3C[C@H](OC)[C@@H](O[C@H]4C[C@H](OC)[C@@H](SCC(C)O)[C@H](C)O4)[C@H](C)O3)[C@@H](C)/C=C/C=C3\CO[C@@H]4[C@H](O)C(C)=C[C@@H](C(=O)O1)[C@]34O)O2 (some centres not stated) | 88 | 0.125 | 870 | 0.153 (≈ 0.162 nM) | – | – | – | – | – | – |
| CCC(C)[C@H]1O[C@]2(C=C[C@@H]1C)C[C@@H]1C[C@@H](C/C=C(\C)[C@@H](O[C@H]3C[C@H](OC)[C@@H](O[C@H]4C[C@H](OC)[C@@H](SCCCO)[C@H](C)O4)[C@H](C)O3)[C@@H](C)/C=C/C=C3\CO[C@@H]4[C@H](O)C(C)=C[C@@H](C(=O)O1)[C@]34O)O2 (some centres not stated) | 53 | 0.25 | 870 | 0.153 (≈ 0.162 nM) | – | – | – | – | – | – |
| CCC(C)[C@H]1O[C@]2(CC[C@@H]1C)C[C@@H]1C[C@@H](C/C=C(\C)[C@@H](O[C@H]3C[C@H](OC)[C@@H](O[C@H]4C[C@H](OC)[C@H](S(=O)(=O)CCO)[C@H](C)O4)[C@H](C)O3)[C@@H](C)/C=C/C=C3\CO[C@@H]4[C@H](O)C(C)=C[C@@H](C(=O)O1)[C@]34O)O2 (some centres not stated) | 48 | 0.125 | 650 | 0.119 (≈ 0.123 nM) | 91 | 91 | 91 | 91 | 91 | 91 |
| CCC(C)[C@H]1O[C@]2(C=C[C@@H]1C)C[C@@H]1C[C@@H](C/C=C(\C)[C@@H](O[C@H]3C[C@H](OC)[C@@H](O[C@H]4C[C@H](OC)[C@@H]([S+]([O-])CCO)[C@H](C)O4)[C@H](C)O3)[C@@H](C)/C=C/C=C3\CO[C@@H]4[C@H](O)C(C)=C[C@@H](C(=O)O1)[C@]34O)O2 (some centres not stated) | 69 | 0.063 | 870 | 0.469 (≈ 0.494 nM) | – | – | – | – | – | – |
| CCC(C)[C@H]1O[C@]2(C=C[C@@H]1C)C[C@@H]1C[C@@H](C/C=C(\C)[C@@H](O[C@H]3C[C@H](OC)[C@@H](O[C@H]4C[C@H](OC)[C@H]([S+]([O-])CCO)[C@H](C)O4)[C@H](C)O3)[C@@H](C)/C=C/C=C3\CO[C@@H]4[C@H](O)C(C)=C[C@@H](C(=O)O1)[C@]34O)O2 (some centres not stated) | 13 | 0.125 | 1300 | > 1.27 | – | – | – | – | – | – |
| CCC(C)[C@H]1O[C@]2(C=C[C@@H]1C)C[C@@H]1C[C@@H](C/C=C(\C)[C@@H](O[C@H]3C[C@H](OC)[C@@H](O[C@H]4C[C@H](OC)[C@@H](SCCNC(C)=O)[C@H](C)O4)[C@H](C)O3)[C@@H](C)/C=C/C=C3\CO[C@@H]4[C@H](O)C(C)=C[C@@H](C(=O)O1)[C@]34O)O2 (some centres not stated) | 63 | 0.063 | 870 | 0.165 (≈ 0.169 nM) | – | – | – | – | – | – |
| CCC(C)[C@H]1O[C@]2(C=C[C@@H]1C)C[C@@H]1C[C@@H](C/C=C(\C)[C@@H](O[C@H]3C[C@H](OC)[C@H](SCCO)[C@H](C)O3)[C@@H](C)/C=C/C=C3\CO[C@@H]4[C@H](O)C(C)=C[C@@H](C(=O)O1)[C@]34O)O2 (some centres not stated) | 94 | 0.063 | 870 | – | – | – | – | – | – | – |
| CCC(C)[C@H]1O[C@]2(C=C[C@@H]1C)C[C@@H]1C[C@@H](C/C=C(\C)[C@@H](O[C@H]3C[C@H](OC)[C@H](SC)[C@H](C)O3)[C@@H](C)/C=C/C=C3\CO[C@@H]4[C@H](O)C(C)=C[C@@H](C(=O)O1)[C@]34O)O2 (some centres not stated) | 100 | 0.125 | 6930 | 0.422 (≈ 0.556 nM) | – | – | – | – | – | – |
| CCC(C)[C@H]1O[C@]2(C=C[C@@H]1C)C[C@@H]1C[C@@H](C/C=C(\C)[C@@H](O[C@H]3C[C@H](OC)[C@@H](O[C@H]4C[C@H](OC)[C@@H](S(=O)(=O)CC)[C@H](C)O4)[C@H](C)O3)[C@@H](C)/C=C/C=C3\CO[C@@H]4[C@H](O)C(C)=C[C@@H](C(=O)O1)[C@]34O)O2 (some centres not stated) | 64 | 0.063 | 870 | 0.123 (≈ 0.13 nM) | – | – | – | – | – | – |
| CCC(C)[C@H]1O[C@]2(C=C[C@@H]1C)C[C@@H]1C[C@@H](C/C=C(\C)[C@@H](O[C@H]3C[C@H](OC)[C@@H](O[C@H]4C[C@H](OC)[C@H](SCC(C)O)[C@H](C)O4)[C@H](C)O3)[C@@H](C)/C=C/C=C3\CO[C@@H]4[C@H](O)C(C)=C[C@@H](C(=O)O1)[C@]34O)O2 (some centres not stated) | 89 | 0.063 | 870 | 0.216 (≈ 0.228 nM) | – | – | – | – | – | – |
| CCC(C)[C@H]1O[C@]2(C=C[C@@H]1C)C[C@@H]1C[C@@H](C/C=C(\C)[C@@H](O[C@H]3C[C@H](OC)[C@@H](O[C@H]4C[C@H](OC)[C@@H](S(=O)(=O)CCO)[C@H](C)O4)[C@H](C)O3)[C@@H](C)/C=C/C=C3\CO[C@@H]4[C@H](O)C(C)=C[C@@H](C(=O)O1)[C@]34O)O2 (some centres not stated) | 64 | 0.063 | 870 | 0.351 (≈ 0.364 nM) | – | – | – | – | – | – |
| CCC(C)[C@H]1O[C@]2(CC[C@@H]1C)C[C@@H]1C[C@@H](C/C=C(\C)[C@@H](O[C@H]3C[C@H](OC)[C@@H](O[C@H]4C[C@H](OC)[C@H](S(C)(=O)=O)[C@H](C)O4)[C@H](C)O3)[C@@H](C)/C=C/C=C3\CO[C@@H]4[C@H](O)C(C)=C[C@@H](C(=O)O1)[C@]34O)O2 (some centres not stated) | 64 | 0.125 | 870 | 0.084 (≈ 0.0896 nM) | – | – | – | – | – | – |
| CCC(C)[C@H]1O[C@]2(C=C[C@@H]1C)C[C@@H]1C[C@@H](C/C=C(\C)[C@@H](O[C@H]3C[C@H](OC)[C@@H](O[C@H]4C[C@H](OC)[C@H](S(=O)(=O)CC)[C@H](C)O4)[C@H](C)O3)[C@@H](C)/C=C/C=C3\CO[C@@H]4[C@H](O)C(C)=C[C@@H](C(=O)O1)[C@]34O)O2 (some centres not stated) | 68 | 0.031 | 650 | 0.128 (≈ 0.135 nM) | – | – | – | – | – | – |
| CCC(C)[C@H]1O[C@]2(C=C[C@@H]1C)C[C@@H]1C[C@@H](C/C=C(\C)[C@@H](O[C@H]3C[C@H](OC)[C@@H](O[C@H]4C[C@H](OC)[C@H](S(C)(=O)=O)[C@H](C)O4)[C@H](C)O3)[C@@H](C)/C=C/C=C3\CO[C@@H]4[C@H](O)C(C)=C[C@@H](C(=O)O1)[C@]34O)O2 (some centres not stated) | 45 | 0.063 | 430 | 0.132 (≈ 0.141 nM) | 91 | 91 | 91 | 91 | 91 | 91 |
| CCC(C)[C@H]1O[C@]2(C=C[C@@H]1C)C[C@@H]1C[C@@H](C/C=C(\C)[C@@H](O[C@H]3C[C@H](OC)[C@@H](O[C@H]4C[C@H](OC)[C@H]([S+](C)[O-])[C@H](C)O4)[C@H](C)O3)[C@@H](C)/C=C/C=C3\CO[C@@H]4[C@H](O)C(C)=C[C@@H](C(=O)O1)[C@]34O)O2 (some centres not stated) | 64 | 0.031 | 870 | 0.262 (≈ 0.285 nM) | 91 | 91 | 91 | 91 | 91 | 91 |
| CCC(C)[C@H]1O[C@]2(C=C[C@@H]1C)C[C@@H]1C[C@@H](C/C=C(\C)[C@@H](O[C@H]3C[C@H](OC)[C@@H](O[C@H]4C[C@H](OC)[C@@H]([S+](C)[O-])[C@H](C)O4)[C@H](C)O3)[C@@H](C)/C=C/C=C3\CO[C@@H]4[C@H](O)C(C)=C[C@@H](C(=O)O1)[C@]34O)O2 (some centres not stated) | – | 0.016 | 430 | – | 91 | 91 | 91 | 91 | 91 | 91 |
| CCC(C)[C@H]1O[C@]2(CC[C@@H]1C)C[C@@H]1C[C@@H](C/C=C(\C)[C@@H](O[C@H]3C[C@H](OC)[C@@H](O[C@H]4C[C@H](OC)[C@H]([S+](C)[O-])[C@H](C)O4)[C@H](C)O3)[C@@H](C)/C=C/C=C3\CO[C@@H]4[C@H](O)C(C)=C[C@@H](C(=O)O1)[C@]34O)O2 (some centres not stated) | 77 | 0.063 | 870 | 0.108 (≈ 0.117 nM) | – | – | – | – | – | – |
| CCC(C)[C@H]1O[C@]2(C=C[C@@H]1C)C[C@@H]1C[C@@H](C/C=C(\C)[C@@H](O[C@H]3C[C@H](OC)[C@@H](O)[C@H](C)O3)[C@@H](C)/C=C/C=C3\CO[C@@H]4[C@H](O)C(C)=C[C@@H](C(=O)O1)[C@]34O)O2 (some centres not stated) [AVERMECTIN MS] | 93 | 0.075 | 430 | 0.81 (≈ 1.11 nM) | – | – | – | – | – | – |
| CCC(C)[C@H]1O[C@]2(C=C[C@@H]1C)C[C@@H]1C[C@@H](C/C=C(\C)[C@@H](O[C@H]3C[C@H](OC)[C@@H](O[C@H]4C[C@H](OC)[C@@H](O)[C@H](C)O4)[C@H](C)O3)[C@@H](C)/C=C/C=C3\CO[C@@H]4[C@H](O)C(C)=C[C@@H](C(=O)O1)[C@]34O)O2 (some centres not stated) [AVERMECTIN] | 95 | 0.031 | 400 | 0.073 (≈ 0.0836 nM) | 91 | 91 | 91 | 91 | 91 | 91 |
